Assay results reported in a melting point compilation (Tetko et al.).

Structure (SMILES) | melting point
CC(C)(C)N(NC(=O)c1ccccc1)C(=O)c1ccccc1 | 178 °C
O=C(Nn1cnnc1)C(F)(F)C(F)(F)C(F)(F)C(F)(F)C(F)(F)C(F)(F)C(F)(F)C(F)(F)F | 151 °C
Oc1ccc(Cl)c2c1CCC2 | 92 °C
Clc1ccncc1 | -43.5 °C
Cc1cc(O)c([N+](=O)[O-])cc1Cl | 133 °C
Cc1nc(-c2ccc(C(F)(F)F)cc2)sc1C(=O)Cl | 85 to 86 °C
CC12CCC(CC1)C2(C)C | 158 °C
c1ccc(-n2nc3ccccc3n2)cc1 | 107 °C
O=C(Nc1ccc(Br)cc1Br)C(F)(F)C(F)(F)C(F)(F)C(F)(F)C(F)(F)C(F)(F)C(F)(F)C(F)(F)F | 95 °C
O=NN1CCCC1c1cccnc1 (centres undefined) | 47 °C
COc1cc(F)c(F)cc1C#N | 99 °C
CN1CCC(N(Cc2ccccc2)c2ccccc2)CC1 | 114 °C
O=C1c2ccccc2C(=O)C1C(=O)C(c1ccccc1)c1ccccc1 | 146 °C
S=C=Nc1c(Cl)cc(Cl)cc1Cl | 74 to 76 °C
CC(C)COC(=O)c1ccccc1C(=O)OCC(C)C | -64 °C
Cc1cc(C)cc(O[Si]23OCCN(CCO2)CCO3)c1 | 220 °C
C[Si](C)(C)NC(=O)N[Si](C)(C)C | 232 °C
COc1ccc(NC(=S)c2cc(C(C)(C)C)c(O)c(C(C)(C)C)c2)cc1 | 128 to 129 °C
C=Cc1c2ccccc2cc2ccccc12 | 64 to 66 °C
Cc1cccc(C)c1NC1=NCCCS1 | 140 °C
OC1(c2ccccc2)c2ccccc2-c2ccccc21 | 107 to 110 °C
CC(C)(C(=O)O)C(O)c1ccccc1 (centres undefined) | 134 to 137 °C
BrCc1ccc(I)cc1 | 80 °C
Cc1o[nH]c(=O)c1CC(N)C(=O)O (racemic) | 240 to 252 °C
NC(=O)/C(=N\Nc1cccc(C(F)(F)F)c1)c1nc2ccccc2s1 | 190 °C
Cc1csc(=S)n1O | 88 to 93 °C
Brc1cccc2cc[nH]c12 | 46 to 47 °C
CNC(C)C1CCC(N)C(OC2C(N)CC(N)C(OC3OCC(C)(O)C(NC)C3O)C2O)O1 (centres undefined) | 105 °C

More lines, now with the values ahead:

melting point | Structure (SMILES)
188 to 190 °C | Oc1ccc2ccccc2c1Cc1c(O)ccc2ccccc12
154 to 156 °C | Cn1c(C(=O)O)cc2sccc21
-129 °C | C=CCCCC=C
183 to 185 °C | COc1cc(CC(=O)O)cc(Br)c1O
168 °C | CC1=C(C)S(=O)(=O)CCS1(=O)=O
48 to 50 °C | Cc1sc(C2CCN(C(=O)OC(C)(C)C)CC2)nc1CC(=O)O
156 °C | CC(=O)OCC1(C)CCCC23COC4CC5C(C)C(=O)C6(C(CC12)OC(C)(C)OC56)C43 (centres undefined)
79 °C | CC(O)CCc1ccc2c(c1)NC(C)CC2 (centres undefined)
78.8 °C | CCCCCCCC(=O)NO
228 °C | N#C/C(=C\c1cccnc1)c1nc2ccccc2[nH]1
67.2 °C | C=CCCCCCCCCCCCCCCCCC1CC(=O)OC1=O (centres undefined)
135 °C | OCCN1CCN(CCO)CC1
152 to 156 °C | CC(=O)Oc1ccc2c(C)cc(=O)oc2c1
87 to 90 °C | COC(=O)c1scc(C#N)c1-n1cccc1
52 to 54 °C | Cc1cc(CO)n(C)n1
80 °C | N#CCc1ccc(OCc2ccccc2)c(OCc2ccccc2)c1
118 to 119 °C | COc1ccc(NC(=O)CS)cc1
68 to 68.5 °C | CN(C)c1ccc(CCC2CCc3ccccc3N2)cc1 (centres undefined)

melting point | Structure (SMILES)
-50 °C | CCCCN(CCCC)CCCN
90 °C | CC(=O)C(CC(=O)c1ccccc1)C(=O)c1ccccc1 (centres undefined)
-67 °C | CC(CC(C)(C)C)CC(C)(C)C
156 to 160 °C | CC(=O)Nc1cccc2ccccc12
118 °C | CC12CCC(C1(C)C)C(CC(Br)=Cc1ccccc1)(C1(CC(Br)=Cc3ccccc3)C(=O)C3(C)CCC1C3(C)C)C2=O (centres undefined)
145 to 146 °C | Cc1cc(C)c(CSCc2c(C)cc(C)cc2C)c(C)c1
95 °C | CCOC(=O)c1c(SC)nn(C(=O)c2ccccc2)c1N
-57.1 °C | CCCCN1CCOCC1
30 to 31 °C | Clc1ccc(OCCCCBr)cc1
182 °C | O=C(O)Cc1cc(I)c(Oc2ccc(O)c(I)c2)c(I)c1
224 °C | CCOC(=O)Cn1nc(-c2ccccc2)c2ccccc2c1=O
214 °C | CCOC(=O)c1cc(C)[nH]c(=S)c1C#N
95 to 99 °C | Cc1cc(C)c(S(=O)(=O)n2ccnc2)c(C)c1
199 to 200 °C | O=C1Nc2c(Br)cccc2C1=O
192 to 195 °C | Sc1nc2ccccc2o1
238 °C | CN(Cc1cc(Br)cc(Br)c1N)C1CCCCC1
33 to 35 °C | FC(F)(F)c1cccc(Cl)n1
64 °C | Cc1cccc(CC(=O)O)c1
